This test has as its target T1, Bombyx mori Gr9 (BmGr9) (Bombyx mori, UniProt B3GTD7).
T1 construct: N-terminally Twin-Strep-tagged BmGr9, homotetramer
T1 sequence (B3GTD7 1-449): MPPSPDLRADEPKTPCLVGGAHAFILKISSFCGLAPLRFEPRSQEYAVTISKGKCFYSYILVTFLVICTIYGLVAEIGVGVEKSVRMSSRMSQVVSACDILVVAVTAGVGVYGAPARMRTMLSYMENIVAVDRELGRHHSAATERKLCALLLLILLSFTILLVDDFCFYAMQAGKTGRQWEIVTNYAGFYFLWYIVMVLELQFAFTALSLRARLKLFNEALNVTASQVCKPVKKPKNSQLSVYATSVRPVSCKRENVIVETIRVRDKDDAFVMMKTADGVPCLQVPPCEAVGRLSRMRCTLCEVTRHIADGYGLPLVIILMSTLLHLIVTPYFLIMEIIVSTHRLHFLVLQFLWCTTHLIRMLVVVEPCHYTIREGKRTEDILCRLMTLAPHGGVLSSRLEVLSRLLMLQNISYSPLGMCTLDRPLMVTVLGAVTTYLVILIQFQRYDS
Briefly: cryo-EM structure ([…] Å) with […] D-fructose; EC50 by two-electrode voltage clamp in Xenopus oocytes. It counts as cell-based. On the technique in general: Two-electrode voltage clamp holds a large cell at a set potential and records current.

With `OCC1(O)OC[C@@H](O)[C@@H](O)[C@@H]1O` (stereo partly drawn) [D-fructose], a half-maximal response (EC50) required 22 mM.

(Values after publication PMC11100771, “Structural basis of ligand specificity and channel activation in an insect gustatory receptor” (Cell reports, 2024).)
